Target: T1, TRPC6 channels (Rattus norvegicus, UniProt Q99N78)
T1 construct: Acutely isolated glomeruli were prepared as described above; from tissue; host or cells: acutely isolated glomeruli (podocytes) of AT1R Tg and WT rats
T1 sequence (Q99N78 1-930): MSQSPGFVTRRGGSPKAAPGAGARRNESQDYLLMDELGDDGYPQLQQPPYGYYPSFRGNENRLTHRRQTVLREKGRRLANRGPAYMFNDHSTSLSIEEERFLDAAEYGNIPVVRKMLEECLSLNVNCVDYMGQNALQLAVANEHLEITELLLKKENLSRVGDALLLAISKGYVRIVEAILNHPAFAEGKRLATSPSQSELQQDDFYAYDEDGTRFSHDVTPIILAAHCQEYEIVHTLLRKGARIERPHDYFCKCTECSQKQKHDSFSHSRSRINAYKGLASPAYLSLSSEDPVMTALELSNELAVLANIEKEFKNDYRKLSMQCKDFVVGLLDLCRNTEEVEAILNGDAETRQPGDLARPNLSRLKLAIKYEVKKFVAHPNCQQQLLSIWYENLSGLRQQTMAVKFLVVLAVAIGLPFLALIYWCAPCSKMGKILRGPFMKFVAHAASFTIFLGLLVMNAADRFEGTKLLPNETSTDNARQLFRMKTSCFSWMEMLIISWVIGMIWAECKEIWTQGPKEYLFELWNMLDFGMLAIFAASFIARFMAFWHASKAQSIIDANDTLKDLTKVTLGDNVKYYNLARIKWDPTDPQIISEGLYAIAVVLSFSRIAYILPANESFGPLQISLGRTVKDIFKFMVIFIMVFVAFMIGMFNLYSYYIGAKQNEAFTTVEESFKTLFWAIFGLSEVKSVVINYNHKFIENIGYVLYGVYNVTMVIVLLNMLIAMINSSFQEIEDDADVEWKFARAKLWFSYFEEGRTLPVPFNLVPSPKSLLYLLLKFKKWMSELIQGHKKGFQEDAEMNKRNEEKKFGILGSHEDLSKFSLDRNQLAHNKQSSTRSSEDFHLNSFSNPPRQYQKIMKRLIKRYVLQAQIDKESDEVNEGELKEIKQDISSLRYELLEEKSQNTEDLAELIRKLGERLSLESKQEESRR
Assay: Glomerular inside-out single-channel recordings, OAG-induced conductances
Format: cell-based
Conditions: glomeruli from age matched AT1R Tg rats and WT controls
Procedure: Acute glomeruli isolation and Ca^2+-imaging: WT and AT1R Tg littermates were killed and kidneys were quickly dissected and washed with ice-cold PBS. After isolation using the sieving technique as previously described (11), glomeruli were incubated with the Ca^2+ indicator Fura2-AM (1 μM; Invitrogen) at 37° C. for 15 min. The extracellular solution for Ca^2+-imaging contained (in mM) 140 NaCl, 5 KCl, 10 HEPES, 2 MgCl2, 2 CaCl2, 10 glucose, with pH7.4 adjusted with NaOH. Glomerular Ca^2+-imaging was performed using an inverted microscope (Olympus IX70) with a high-speed CCD camera (Hamamatsu Photonics). Images were taken and analyzed using the Metafluor software (Molecular Devices). It should be noted that Fura-2 is most often taken up by podocytes at the periphery of the isolated glomerulus, but the specificity of recordings in podocytes is best confirmed by patch clamp electrophysiology, as described below.
Glomerular single-channel recordings: Acutely isolated glomeruli were prepared as described above. Single-channel recordings were carried out using an Axopatch 200B and Digidata 1550A (Molecular Devices). Bath and pipette solutions for glomerular single-channel recording contained (in mM) 135 CH3SO3Na, 5 CsCl, 2 CaCl2, 1 MgCl2, 10 HEPES, and 10 glucose with pH7.4 adjusted with NaOH. […]

For `Cc1cc(N2CCCCC2)nc2ccccc12` [ML204, reference compound], the “inhibition of OAG-induced conductances” value was “no inhibition”.
